Test results taken from patent publication US20060063736A1, “Compositions and methods for inhibiting mucin-type O-linked glycosylation” (priority 2004, published 2006).

What was measured:
mppGalNAcT-1 = molecular target: T1, mppGalNAcT-1 (Mus musculus, UniProt O08912); experiment: ELLA for ppGalNAcTs, mppGalNAcT-1; type: biochemical, murine; settings: for IC50: ELLA, 20 μM UDP-GalNAc, 50 μM EA2 peptide 4; for mode of inhibition with respect to UDP-GalNAc: mppGalNAcT-1; for Ki: mppGalNAcT-1, with respect to UDP-GalNAc, read-out: KI versus UDP-GalNAc
T1 construct: plasmids encoding truncated secreted ppGalNAcTs-1 to −5, -7, -10 and -11; made in house; host or cells: COS-7
T1 sequence (O08912 29-559 limits assumed): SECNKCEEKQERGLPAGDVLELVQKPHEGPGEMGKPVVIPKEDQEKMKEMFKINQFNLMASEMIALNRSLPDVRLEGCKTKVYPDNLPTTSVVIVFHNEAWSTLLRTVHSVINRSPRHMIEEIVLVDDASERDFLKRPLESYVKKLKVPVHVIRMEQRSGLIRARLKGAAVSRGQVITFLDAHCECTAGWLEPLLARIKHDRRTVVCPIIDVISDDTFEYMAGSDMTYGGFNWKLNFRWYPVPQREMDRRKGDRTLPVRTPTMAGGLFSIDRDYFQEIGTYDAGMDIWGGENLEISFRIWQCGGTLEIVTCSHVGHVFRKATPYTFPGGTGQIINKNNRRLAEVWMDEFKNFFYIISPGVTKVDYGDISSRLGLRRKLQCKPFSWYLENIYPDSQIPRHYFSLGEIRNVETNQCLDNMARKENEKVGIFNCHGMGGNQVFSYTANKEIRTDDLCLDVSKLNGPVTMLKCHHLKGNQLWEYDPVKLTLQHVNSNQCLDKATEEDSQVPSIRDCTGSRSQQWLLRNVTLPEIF
Protocol: COS-7 cells were transiently transfected with plasmids encoding truncated secreted ppGalNAcTs-1 to −5, -7, -10 and -11 as previously described. Hagen et al. (1997) J. Biol. Chem. 272:13843-13848. The crude conditioned medium was used as the enzyme source.
Standard reaction conditions for ppGalNAcT assays were as follows. The reaction mixture contained the following components in a final volume of 25 μL: 10 mM MnCl2, 40 mM sodium cacodylate, 40 mM β-mercaptoethanol, 0.1% Triton X-100, pH 6.5, 5 μL of conditioned media, and various concentrations of EA2 peptide 4, UDP-GalNAc and inhibitor. All uridine-based compounds were dissolved in dimethyl sulfoxide (DMSO). The concentration of DMSO in the reaction mixture was limited to 2% (v/v), as higher concentrations decreased ppGalNAcT activity. For inhibitor assays, reaction mixtures for positive controls also contained 2% DMSO. Unless otherwise stated, inhibitor assays were performed using 20 μM UDP-GalNAc and 50 μM EA2 peptide 4, the KM values for both substrates. Reactions were incubated at 37° C. and were terminated by the addition of 10 μL of 0.1 M EDTA. All experiments were performed in duplicate. Reaction rates were linear over the period monitored (20-30 min).
96-Well NeutrAvidin-coated plates were prewashed 3 times with 200 μL of wash buffer (25 mM Tris, 150 mM NaCl, 0.1% bovine serum albumin (BSA) (w/v), and 0.05% Tween (v/v), pH 7.2). Reactions were then transferred to the 96-well plates, incubated for 1 hour at room temperature (rt) and subsequently washed 3 times with 200 μL of phosphate-buffered saline (PBS) containing 0.5% BSA and 0.05% Tween, pH 7.1. A 100-μL solution of HPA-HRP in standard PBS buffer (1 μg/mL, pH 7.4) was added and the reaction was incubated for 1 h at rt. After 3 washes with 200 μL of PBS, bound HPA-HRP was quantified by the addition of 100 μL of TMB peroxide solution. The solutions were incubated for 5-15 min in the dark at rt. HRP activity was terminated by the addition of 50 μL of 2 N H2SO4 and the resulting solution was analyzed at 450 nm using a UV/Vis microtiter plate reader. The amount of product generated by the ppGalNAcT was extrapolated from absorbance values using an equation fit to the standard curve derived from Origin 6.1 software.
In order to screen the library in high-throughput format, a non-radioactive enzyme linked lectin assay (ELLA) for ppGalNAcTs was developed. As an acceptor substrate, the EA2 peptide (PTTDSTTPAPTTK; SEQ ID NO:12), a fragment of rat submandibular mucin, was chosen. Albone et al. (1994) J. Biol. Chem. 269:16845-16852. This peptide has been previously shown to be an efficient substrate for murine (m) ppGalNAcT-1 and is preferentially glycosylated at the fourth Thr residue from the N-terminus (underlined). Ten Hagen et al. (2001, supra). Biotinylation of EA2 allowed capture of (glyco)peptides onto 96-well NeutrAvidin-coated plates. The GalNAc-modified glycopeptide product could be detected using the α-GalNAc-specific lectin Helix pomatia agglutinin (HPA) (Hammarstrom et al. (1977) Biochemistry 16:2750-2755) conjugated to horseradish peroxidase (HRP). The bound HRP was quantified by addition of a chromogenic substrate.

HEK 293T cells [1] = experiment: Jacalin staining of O-linked glycans on HEK 293T cells; type: cell-based, human; settings: 100 μM, 24 h
Protocol: (§1) HEK 293T cells were seeded at 20,000 cells/mL in a 24-well plate (Costar) fit with glass cover slips (Fisher). After 24 h of incubation with 100 μM 1-68A, cells were washed twice with PBS (pH 7.4) and fixed with 4% paraformaldehyde-PBS for 1 h at rt. The cells were washed twice with PBS and incubated with permeabilization solution (0.1% Triton X-100 in 0.1% sodium citrate, freshly prepared) for 2 min on ice. After the cells were washed twice with PBS, 50 μL of TUNEL reaction mixture (1:10 dilution, Boehringer Mannheim) was added. The plate was covered with parafilm to avoid evaporative loss and incubated in a humidified atmosphere for 1 h at 37° C. in the dark. The cells were then rinsed three times with PBS and blocked with 2% BSA in PBST (PBS, 0.05% Tween 20) for 30 min at rt. Following one wash with PBS, the cells were incubated with 100 μL of FITC-jacalin (4 μg/mL in PBST) for 1 h at 37° C. in the dark. […] Slides were analyzed by fluorescence microscopy (Zeiss, using Openlab software).
(§2) To determine if the inhibition of O-linked glycosylation and induction of apoptosis by 1-68A and 2-68A were specific to Jurkat cells, the effects of 1-68A on human embryonic kidney (HEK) 293T cells were evaluated. In this case, O-linked glycans on the cell surface were monitored by staining with jacalin, a lectin that binds core 1 structures (Galβ1,3-GalNAcα1-Ser/Thr). […]

HEK 293T cells [2] = experiment: TUNEL staining of HEK 293T cells (apoptosis); type: cell-based, human; settings: 100 μM, 24 h
Protocol: as §1, §2

O=c1ccn([C@@H]2O[C@H](CON=Cc3ccc(O)c(O)c3O)[C@@H](O)[C@H]2O)c(=O)[nH]1 [1-68A]
IC50 (mppGalNAcT-1): 21 ± 1 µM | mode of inhibition with respect to UDP-GalNAc (mppGalNAcT-1): competitive | Ki (mppGalNAcT-1): 7.8 ± 0.1 µM | effect on jacalin staining (HEK 293T cells [1]): inhibits | effect on TUNEL staining compared to untreated cells (HEK 293T cells [2]): increases

O=C(CON=Cc1ccc(O)c(O)c1O)NC[C@H]1O[C@@H](n2ccc(=O)[nH]c2=O)[C@H](O)[C@@H]1O [2-68A]
IC50 (mppGalNAcT-1): 24 ± 2 µM | mode of inhibition with respect to UDP-GalNAc (mppGalNAcT-1): competitive | Ki (mppGalNAcT-1): 7.8 ± 1 µM
